These results are taken from ChEMBL document CHEMBL1201862, “PubChem BioAssay data set” (2004).

Holding throughout (assay): NCI tumour cell line growth inhibition, 48 h
Test [1] relates to BT-549.
The subject of test [2] is HCT-15.
Test [3] has as its system HL-60.
In test [4] the test system is HOP-92.
The subject of test [5] is Hs-578T.
The test system of test [6] is MCF7.
The subject of test [7] is MDA-N.
Test [8] relates to NCI-H226.
Test [9] has as its system NCI-H460.
In test [10] the test system is NCI-H522.
In test [11] the test system is OVCAR-4.
In test [12] the test system is OVCAR-5.
The test system of test [13] is RXF 393.
The test system of test [14] is SF-539.
The subject of test [15] is SNB-19.
For test [16], the system named is SNB-75.
Test [17] has as its system SW-620.
The subject of test [18] is TK-10.
The test system of test [19] is UACC-257.
Test [20] has as its system NCI/ADR-RES.

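The compound was tested at five concentrations on cells cultured in 96-well plates, with a 48-hour exposure period. GI50: concentration for 50% inhibition of growth.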 Calls of active or inactive are those of the source. No stated cut-off is given here; in the data, active = GI50 up to about 1.1 µM and inactive = higher.

On to `CC1CCC2(OC1)OC1CC3C4CC=C5CC(OC6OC(CO)C(OC7OC(C)C(OC8OC(C)C(O)C(O)C8O)C(O)C7O)C(O)C6OC6OC(C)C(O)C(O)C6O)CCC5(C)C4CCC3(C)C1C2C` (configuration not stated), for which the GI50 in test [1] was 1.66 µM (inactive); in test [2] it was 1.51 µM; in test [3], 0.239 µM (active); in test [4], 0.0703 µM (active); in test [5], 0.264 µM (active); in test [6] it was 1.38 µM (inactive). For the same compound, the GI50 in test [7] was 0.4 µM (active); in test [8], 1.36 µM (inactive); in test [9], 1.61 µM (inactive); in test [10], 0.643 µM (active); in test [11] it was 0.275 µM (active); in [12], 1.12 µM (inactive). The GI50 in test [13] was 0.583 µM (active); in test [14], 0.394 µM (active); in test [15], 0.262 µM (active); in test [16], 0.372 µM (active); in [17] it was 1.48 µM (inactive); in test [18], 1.39 µM (inactive). Besides, the GI50 in test [19] was 0.74 µM (active).
Regarding `O=C(c1ccccc1)c1ccc(N2C(=O)/C(=C/c3cccc([N+](=O)[O-])c3)N=C2c2ccccc2)c(N2C(=O)/C(=C/c3cccc([N+](=O)[O-])c3)N=C2c2ccccc2)c1`, the GI50 was 35.5 µM (inactive) in test [1]; 16.5 µM in test [2]; 0.759 µM (active) in test [3]; 82.2 µM (inactive) in test [4]; 30.7 µM (inactive) in [5]; 26.7 µM (inactive) in test [6]. Further, the GI50 in [7] is 21.7 µM (inactive); in test [9], 5.28 µM (inactive); in test [20], 25.1 µM (inactive); in test [11], 34.6 µM (inactive); in [12], > 100 µM (inactive); in test [14] it was 26.3 µM (inactive). For the same compound, the GI50 in test [15] is 54.8 µM (inactive); in test [16], 15.1 µM (inactive); in test [17], 32.9 µM (inactive); in [18], 42.5 µM (inactive); in test [19], 36.2 µM (inactive).
With `CCOP(=O)(/C=C/n1cc(C)c(=O)[nH]c1=O)OCC`, the GI50 in test [1] was > 100 µM (inactive); in test [2], over 100 µM; in [3], > 100 µM (inactive); in test [6] it was > 100 µM (inactive); in [7], > 100 µM (inactive); in [8], > 100 µM (inactive). For the same compound, the GI50 in test [9], in [10], in test [20], in test [11], in [12] and in test [13] was > 100 µM (inactive) in each case. For the same compound, the GI50 in test [14], in [15], in test [16], in test [17], in test [18] and in [19] was > 100 µM (inactive) throughout.
Consider `CC(=O)OCCCCN1C(=O)CSc2ccccc21`, for which the GI50 is 4.2 µM (inactive) in test [1]; over 100 µM in test [2]; > 100 µM (inactive) in [3]; > 100 µM (inactive) in test [4]; > 100 µM (inactive) in [5]; > 100 µM (inactive) in test [6]. For the same compound, the GI50 in [7], in test [9], in test [10], in test [11], in test [12] and in [13] was > 100 µM (inactive) in each case. For the same compound, the GI50 in test [14], in [15], in test [16], in [17], in test [18] and in test [19] was > 100 µM (inactive) each time.
For `COc1cc(C2=C(C)[C@@H]3CN(CC=C3c3ccc(Cl)cc3)C2)c(S(=O)(=O)O)cc1OC`, the GI50 in test [1] was > 100 µM (inactive); in test [2], over 100 µM; in [4] it was > 100 µM (inactive); in test [5] it was > 100 µM (inactive); in test [7], > 100 µM (inactive); in [8], > 100 µM (inactive). Moreover, the GI50 in test [10], in test [20], in [11], in test [12], in test [13] and in [15] was > 100 µM (inactive) each time. For the same compound, the GI50 in test [16], in test [17], in test [18] and in test [19] was > 100 µM (inactive) throughout.
`COc1cc(-c2nc(N)c(C#N)c3c2CCS(=O)(=O)c2ccc(C)cc2-3)cc(OC)c1OC`: the GI50 was 53 µM (inactive) in [1]; over 100 µM in test [2]; > 100 µM (inactive) in test [3]; 9.16 µM (inactive) in test [4]; 33.8 µM (inactive) in test [5]; > 100 µM (inactive) in test [7]. Besides, the GI50 in test [8] is 9.46 µM (inactive); in test [9] it was > 100 µM (inactive); in [10], > 100 µM (inactive); in [20] it was 12.6 µM (inactive); in test [11], > 100 µM (inactive); in test [12] it was > 100 µM (inactive). The GI50 in test [15] was 7.05 µM (inactive); in test [16], 16.7 µM (inactive); in test [17] it was > 100 µM (inactive); in [18], 9.98 µM (inactive); in test [19], > 100 µM (inactive).
Regarding `N#CC(=S)Nc1cccc(Cl)c1`, the GI50 in test [1] was 35.5 µM (inactive); in test [2] it was 27.9 µM; in test [3] it was 33.2 µM (inactive); in test [4], 35.6 µM (inactive); in test [6], 46.8 µM (inactive); in [7], 44.3 µM (inactive). Besides, the GI50 in [8] is 23.9 µM (inactive); in test [9], 19.9 µM (inactive); in test [20] it was 30.7 µM (inactive); in [11], 42.4 µM (inactive); in test [12], 28.5 µM (inactive); in [13], 26 µM (inactive). Besides, the GI50 in test [14] was 25.9 µM (inactive); in test [15] it was 54.5 µM (inactive); in test [16], 23.9 µM (inactive); in [17], 53.2 µM (inactive); in [18] it was 35.4 µM (inactive); in test [19] it was 37.2 µM (inactive).
Turning to `CCOC(=O)CSc1nnc(CSc2nc(-c3ccccc3)c(-c3ccccc3)[nH]2)n1-c1ccccc1`, the GI50 in [1] was > 100 µM (inactive); in [2] it was over 100 µM; in test [3] it was 49.5 µM (inactive); in test [4], 40.4 µM (inactive); in test [6], 66.4 µM (inactive); in [7] it was 75.3 µM (inactive). Also, the GI50 was 42.3 µM (inactive) in test [8]; > 100 µM (inactive) in [9]; > 87.7 µM (inactive) in test [10]; 61.9 µM (inactive) in test [20]; 22.1 µM (inactive) in [11]; > 59.2 µM (inactive) in [12]. Besides, the GI50 was 22.5 µM (inactive) in test [13]; 20.7 µM (inactive) in test [14]; > 100 µM (inactive) in test [15]; > 100 µM (inactive) in [16]; > 100 µM (inactive) in test [17]; 17 µM (inactive) in test [18]. Besides, the GI50 in test [19] was 29.3 µM (inactive).
